According to patent publication US11661426B2, “Imidazole-containing inhibitors of ALK2 kinase” (BioCryst Pharmaceuticals, Inc., priority 2017, dated 2023):

Molecular target: ALK2 (Homo sapiens (Human), UniProt Q04771)
Experiment: ALK2 inhibition, LanthaScreen Eu Kinase Binding Assay (ThermoFisher Scientific / Life Technologies)
Settings: read-out: Measured Ki (IC50) Value for Compounds: IC50
Experimental: Biochemical assays to measure the inhibitory effects of the compounds were performed by ThermoFisher Scientific (Life Technologies). ALK2 inhibition was tested using LanthaScreen™ Eu Kinase Binding Assay screening protocol.

Sequence of ALK2 (Q04771 21-509): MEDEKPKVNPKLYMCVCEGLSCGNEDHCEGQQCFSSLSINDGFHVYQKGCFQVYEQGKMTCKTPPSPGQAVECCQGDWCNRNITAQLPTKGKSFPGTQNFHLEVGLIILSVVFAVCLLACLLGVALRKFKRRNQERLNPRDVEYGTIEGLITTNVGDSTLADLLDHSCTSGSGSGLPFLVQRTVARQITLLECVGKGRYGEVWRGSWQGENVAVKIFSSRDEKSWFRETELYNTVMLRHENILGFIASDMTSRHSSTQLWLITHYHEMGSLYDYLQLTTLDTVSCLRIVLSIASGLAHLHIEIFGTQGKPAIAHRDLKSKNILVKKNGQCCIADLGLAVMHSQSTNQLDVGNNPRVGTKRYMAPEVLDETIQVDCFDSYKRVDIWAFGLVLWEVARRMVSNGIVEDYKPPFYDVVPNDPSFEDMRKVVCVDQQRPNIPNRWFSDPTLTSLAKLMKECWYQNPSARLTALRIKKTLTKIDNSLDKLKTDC

With c1ccc(C2CCCN2c2nc(Nc3cn(-c4cc[nH]n4)cn3)c3cccn3n2)nc1 (stereo not drawn) [Compound 74a, N-(1-(1H-pyrazol-3-yl)-1H-imidazol-4-yl)-2-(2-(pyridin-2-yl)pyrrolidin-1-yl)pyrrolo[2,1-f][1,2,4]triazin-4-amine] the IC50 was > 1 µM.

For OC[C@@H]1CCCN1c1nc(Nc2cn(-c3ccc(OC(F)(F)F)c(Cl)c3)cn2)c2cccn2n1 [Compound 417e, (S)-(1-(4-((1-(3-chloro-4-(trifluoromethoxy)phenyl)-1H-imidazol-4-yl)amino)pyrrolo[2,1-f][1,2,4]triazin-2-yl)pyrrolidin-2-yl)methanol], the IC50 was > 1 µM.

With COc1cc(-n2cnc(Nc3nc4c(c(N5CCC[C@H]5CO)n3)CCCC4)c2)cc(OC)c1OC [Compound 226c, (S)-(1-(2-((1-(3,4,5-trimethoxyphenyl)-1H-imidazol-4-yl)amino)-5,6,7,8-tetrahydroquinazolin-4-yl)pyrrolidin-2-yl)methanol] the IC50 was < 0.1 µM.

With COc1cc(-n2cnc(Nc3nc(N4CCC[C@H]4CO)nn4c(C(C)O)ccc34)c2)cc(OC)c1OC (stereo partly drawn) [Compound 99b, 1-(2-((S)-2-(hydroxymethyl)pyrrolidin-1-yl)-4-((1-(3,4,5-trimethoxyphenyl)-1H-imidazol-4-yl)amino)pyrrolo[2,1-f][1,2,4]triazin-7-yl)ethanol] the IC50 was < 0.1 µM.

With COc1cc(-n2cnc(Nc3nc(N4CCC[C@H]4CO)nc4c3CNC4)c2)cc(OC)c1OC [Compound 365b, (S)-(1-(4-(1-(3,4,5-trimethoxyphenyl)-1H-imidazol-4-ylamino)-6,7-dihydro-5H-pyrrolo[3,4-d]pyrimidin-2-yl)pyrrolidin-2-yl)methanol] the IC50 was < 0.1 µM.

With COc1cc(-n2cnc(Nc3nc4c(c(N5CCC[C@H]5CO)n3)CCCCC4)c2)cc(OC)c1OC [Compound 398c, (S)-(1-(2-((1-(3,4,5-trimethoxyphenyl)-1H-imidazol-4-yl)amino)-6,7,8,9-tetrahydro-5H-cyclohepta[d]pyrimidin-4-yl)pyrrolidin-2-yl)methanol] the IC50 was < 0.1 µM.

In the case of COc1cc(-n2cnc(Nc3nc(N4CC[C@@H](CO)C4)nc4ccoc34)c2)cc(OC)c1OC [Compound 246a, (R)-(1-(4-((1-(3,4,5-trimethoxyphenyl)-1H-imidazol-4-yl)amino)furo[3,2-d]pyrimidin-2-yl)pyrrolidin-3-yl)methanol], the IC50 is reported as < 0.1 µM.

For OC[C@@H]1CCCN1c1nc(Nc2cn(-c3ccc(Cl)cc3)cn2)c2cccn2n1 [Compound 49c, (S)-(1-(4-((1-(4-chlorophenyl)-1H-imidazol-4-yl)amino)pyrrolo[2,1-f][1,2,4]triazin-2-yl)pyrrolidin-2-yl)methanol], the IC50 was < 0.1 µM.

In the case of OC[C@@H]1CCCN1c1nc(Nc2cn(-c3ccc4c(c3)OCO4)cn2)c2ccsc2n1 [Compound 428b, (S)-(1-(4-((1-(benzo[d][1,3]dioxol-5-yl)-1H-imidazol-4-yl)amino)thieno[2,3-d]pyrimidin-2-yl)pyrrolidin-2-yl)methanol], the IC50 is reported as < 0.1 µM.

OC[C@@H]1CCCN1c1nc(Nc2cn(-c3cccc(OC(F)(F)F)c3)cn2)nn2cccc12 [Compound 262d, (S)-(1-(2-((1-(3-(trifluoromethoxy)phenyl)-1H-imidazol-4-yl)amino)pyrrolo[2,1-f][1,2,4]triazin-4-yl)pyrrolidin-2-yl)methanol] was tested, and the IC50 was > 1 µM.

For COc1cc(-n2cnc(Nc3nc(N4CCC[C@H]4C(N)=O)nc4cc(C(F)(F)F)ccc34)c2)cc(OC)c1OC [Compound 285a, (S)-1-(7-(trifluoromethyl)-4-((1-(3,4,5-trimethoxyphenyl)-1H-imidazol-4-yl)amino)quinazolin-2-yl)pyrrolidine-2-carboxamide], the IC50 was < 0.1 µM.

In the case of COc1cc(-n2cnc(Nc3nc(N4CCC[C@H]4CO)nc4c3cnn4CC3CCCCC3)c2)cc(OC)c1OC [Compound 453d, (S)-(1-(1-(cyclohexylmethyl)-4-((1-(3,4,5-trimethoxyphenyl)-1H-imidazol-4-yl)amino)-1H-pyrazolo[3,4-d]pyrimidin-6-yl)pyrrolidin-2-yl)methanol], the IC50 is reported as < 0.1 µM.

COc1cc(-n2cnc(Nc3nc(N4CCC[C@H]4C(=O)NC4CC4)nc4ccoc34)c2)cc(OC)c1OC [Compound 247b, (S)—N-cyclopropyl-1-(4-((1-(3,4,5-trimethoxyphenyl)-1H-imidazol-4-yl)amino)furo[3,2-d]pyrimidin-2-yl)pyrrolidine-2-carboxamide] was tested, and the IC50 was < 0.1 µM.

COc1cc(-n2cnc(Nc3nc(N4CCC[C@H]4CO)nc4sc(CN5CCN(c6ccccn6)CC5)cc34)c2)cc(OC)c1OC [Compound 108b, (S)-(1-(6-((4-(pyridin-2-yl)piperazin-1-yl)methyl)-4-((1-(3,4,5-trimethoxyphenyl)-1H-imidazol-4-yl)amino)thieno[2,3-d]pyrimidin-2-yl)pyrrolidin-2-yl)methanol] was tested, and the IC50 was < 0.1 µM.

COc1cc(-n2cnc(Nc3nc(N4CCC[C@H]4CO)nc4sc(CN5CCCCC5)cc34)c2)cc(OC)c1OC [Compound 113b, (S)-(1-(6-(piperidin-1-ylmethyl)-4-((1-(3,4,5-trimethoxyphenyl)-1H-imidazol-4-yl)amino)thieno[2,3-d]pyrimidin-2-yl)pyrrolidin-2-yl)methanol] was tested, and the IC50 was < 0.1 µM.

COc1cc(-n2cnc(Nc3nc(N4CCC[C@H]4CO)nn4c(CN5CCN(C(=O)OC(C)(C)C)CC5)ccc34)c2)cc(OC)c1OC [Compound 121b, (S)-tert-butyl 4-((2-(2-(hydroxymethyl)pyrrolidin-1-yl)-4-((1-(3,4,5-trimethoxyphenyl)-1H-imidazol-4-yl)amino)pyrrolo[2,1-f][1,2,4]triazin-7-yl)methyl)piperazine-1-carboxylate] was tested, and the IC50 was < 0.1 µM.

With COc1cc(-n2cnc(Nc3ncc4c(n3)CN(Cc3ccccc3)CC4)c2)cc(OC)c1OC [Compound 202b, 7-benzyl-N-(1-(3,4,5-trimethoxyphenyl)-1H-imidazol-4-yl)-5,6,7,8-tetrahydropyrido[3,4-d]pyrimidin-2-amine] the IC50 was < 0.1 µM.

For COc1cc(-n2cnc(Nc3nc(N4CC[C@@H](N(C)C)C4)nc4ccoc34)c2)cc(OC)c1OC [Compound 251a, (R)-2-(3-(dimethylamino)pyrrolidin-1-yl)-N-(1-(3,4,5-trimethoxyphenyl)-1H-imidazol-4-yl)furo[3,2-d]pyrimidin-4-amine], the IC50 was < 0.1 µM.

With OCc1cccc(-n2cnc(Nc3nc(N4CCC[C@H]4CO)nn4cccc34)c2)c1 [Compound 434e, (S)-(1-(4-((1-(3-(hydroxymethyl)phenyl)-1H-imidazol-4-yl)amino)pyrrolo[2,1-f][1,2,4]triazin-2-yl)pyrrolidin-2-yl)methanol] the IC50 was < 0.1 µM.

COc1cc(-n2cnc(Nc3nc(N4CCC[C@H]4CO)nc4ccn(S(=O)(=O)c5ccc(C)cc5)c34)c2)cc(OC)c1OC [Compound 160c, (S)-(1-(5-tosyl-4-((1-(3,4,5-trimethoxyphenyl)-1H-imidazol-4-yl)amino)-5H-pyrrolo[3,2-d]pyrimidin-2-yl)pyrrolidin-2-yl)methanol] was tested, and the IC50 was > 1 µM.

For OCc1cc2c(Nc3cn(-c4ccccc4)cn3)nc(N3CCC[C@H]3CO)nc2s1 [Compound 70f, (S)-(1-(6-(hydroxymethyl)-4-((1-phenyl-1H-imidazol-4-yl)amino)thieno[2,3-d]pyrimidin-2-yl)pyrrolidin-2-yl)methanol], the IC50 was < 0.1 µM.

In the case of N#Cc1cccc(-n2cnc(Nc3nc(N4CCC[C@H]4CO)nn4cccc34)c2)c1 [Compound 119c, (S)-3-(4-((2-(2-(hydroxymethyl)pyrrolidin-1-yl)pyrrolo[2,1-f][1,2,4]triazin-4-yl)amino)-1H-imidazol-1-yl)benzonitrile], the IC50 is reported as < 0.1 µM.

With COc1cc(-n2cnc(Nc3nc(N4CCC[C@@H]4C(N)=O)nc4sccc34)c2)cc(OC)c1OC [Compound 298a, (R)-1-(4-((1-(3,4,5-trimethoxyphenyl)-1H-imidazol-4-yl)amino)thieno[2,3-d]pyrimidin-2-yl)pyrrolidine-2-carboxamide] the IC50 was < 0.1 µM.

In the case of COC(=O)c1cc(OC)cc(-n2cnc(Nc3nc(N4CCC[C@H]4CO)nn4cccc34)c2)c1 [Compound 416e, (S)-methyl 3-(4-((2-(2-(hydroxymethyl)pyrrolidin-1-yl)pyrrolo[2,1-f][1,2,4]triazin-4-yl)amino)-1H-imidazol-1-yl)-5-methoxybenzoate], the IC50 is reported as < 0.1 µM.

In the case of CN1CCN(c2nc(Nc3cn(-c4ccccc4)cn3)c3cccn3n2)CC1 [Compound 35a, 2-(4-methylpiperazin-1-yl)-N-(1-phenyl-1H-imidazol-4-yl)pyrrolo[2,1-f][1,2,4]triazin-4-amine], the IC50 is reported as 0.1 to 1 µM.

In the case of COc1cc(-n2cnc(Nc3nc(N4CCC[C@H]4CO)c4ncsc4n3)c2)cc(OC)c1OC [Compound 150c, (S)-(1-(5-((1-(3,4,5-trimethoxyphenyl)-1H-imidazol-4-yl)amino)thiazolo[5,4-d]pyrimidin-7-yl)pyrrolidin-2-yl)methanol], the IC50 is reported as < 0.1 µM.

For Cn1cnc(Nc2nc(N3CCCC3c3ccccc3)nn3cccc23)c1 (stereo not drawn) [Compound 10a, N-(1-methyl-1H-imidazol-4-yl)-2-(2-phenylpyrrolidin-1-yl)pyrrolo[2,1-f][1,2,4]triazin-4-amine], the IC50 was < 0.1 µM.

CC(=O)c1cccc(-n2cnc(Nc3nc(N4CCC[C@H]4CO)nn4cccc34)c2)c1 [Compound 47c, (S)-1-(3-(4-((2-(2-(hydroxymethyl)pyrrolidin-1-yl)pyrrolo[2,1-f][1,2,4]triazin-4-yl)amino)-1H-imidazol-1-yl)phenyl)ethanone] was tested, and the IC50 was < 0.1 µM.

COc1cc(-n2cnc(Nc3nc4c(c(N5CCC[C@H]5CO)n3)CS(=O)(=O)CC4)c2)cc(OC)c1OC [Compound 273c, (S)-4-(2-(hydroxymethyl)pyrrolidin-1-yl)-2-((1-(3,4,5-trimethoxyphenyl)-1H-imidazol-4-yl)amino)-7,8-dihydro-5H-thiopyrano[4,3-d]pyrimidine 6,6-dioxide] was tested, and the IC50 was < 0.1 µM.

With COc1cc(-n2cnc(Nc3nc(N4CCC[C@H]4CO)c4c(C)nn([C@H]5CC[C@@H](O)CC5)c4n3)c2)cc(OC)c1OC [Compound 447c, (cis)-4-(4-((S)-2-(hydroxymethyl)pyrrolidin-1-yl)-3-methyl-6-((1-(3,4,5-trimethoxyphenyl)-1H-imidazol-4-yl)amino)-1H-pyrazolo[3,4-d]pyrimidin-1-yl)cyclohexanol] the IC50 was < 0.1 µM.
